BindingDB's records for doi:10.1021/jm970104t (Boehringer Ingelheim, 1998)
Where a SMILES comes first, the peptide text is derived from it. [ ]: non-standard residue; d: D form. The star is where a group is joined. ξ: configuration not given here. Tle = CC(C)(C)[C@H](N)C(=O)O; ξNva = CCCC(N)C(=O)O; ξA = CC(N)C(=O)O; CF3 = FC(F)(F)*

Target: HCMV protease (Human cytomegalovirus)
Assay: Micro molar potency to inhibit human cytomegalovirus (HCMV) protease

Row | SMILES | IC50
1 | CN(C)C(=O)C[C@H](NC(=O)[C@@H](NC(=O)CC(C)(C)C)C(C)(C)C)C(=O)N[C@H]1CN(OCc2ccccc2)C1=O [(S)-N*1*-((S)-1-Benzyloxy-2-oxo-azetidin-3-yl)-2-[(S)-2-(3,3-dimethyl-butyrylamino)-3,3-dimethyl-butyrylamino]-N*4*,N*4*-dimethyl-succinamide] | 33 µM
2 | CCCC(NC(=O)[C@H](CC(N)=O)NC(=O)[C@@H](NC(=O)[C@@H](NC(C)=O)C(C)C)C(C)C)C(=O)C(F)(F)F (stereo partly drawn) [(S)-2-[(S)-2-((S)-2-Acetylamino-3-methyl-butyrylamino)-3-methyl-butyrylamino]-N*1*-[1-(2,2,2-trifluoro-acetyl)-butyl]-succinamide] (Ac-VVN[ξNva]-CF3) | > 300 µM
3 | Cc1ccc2nc(C(=O)C(C)NC(=O)[C@H](CC(=O)N(C)C)NC(=O)[C@@H](NC(=O)CC(C)(C)C)C(C)(C)C)oc2c1 (stereo partly drawn) [(S)-2-[(S)-2-(3,3-Dimethyl-butyrylamino)-3,3-dimethyl-butyrylamino]-N*4*,N*4*-dimethyl-N*1*-[1-methyl-2-(6-methyl-benzooxazol-2-yl)-2-oxo-ethyl]-succinamide] | 0.6 µM

Results, then the molecule that gave them:

Row | IC50 | SMILES
4 | > 300 µM | CC(NC(=O)[C@H](CC(=O)N(C)C)NC(=O)[C@@H](NC(=O)CC(C)(C)C)C(C)(C)C)C(=O)C(=O)N(C)C (stereo partly drawn) [(S)-2-[(S)-2-(3,3-Dimethyl-butyrylamino)-3,3-dimethyl-butyrylamino]-N*1*-(2-dimethylcarbamoyl-1-methyl-2-oxo-ethyl)-N*4*,N*4*-dimethyl-succinamide]
5 | 20 µM | CC(NC(=O)[C@H](CC(=O)N(C)C)NC(=O)[C@@H](O)C(C)(C)C)C(=O)C(F)(F)F (stereo partly drawn) [(S)-2-((S)-2-Hydroxy-3,3-dimethyl-butyrylamino)-N*4*,N*4*-dimethyl-N*1*-(3,3,3-trifluoro-1-methyl-2-oxo-propyl)-succinamide]
6 | 12 µM | CC(NC(=O)[C@H](CC(=O)N(C)C)NC(=O)[C@@H](N)C(C)(C)C)C(=O)C(F)(F)F (stereo partly drawn) [(S)-2-((S)-2-Amino-3,3-dimethyl-butyrylamino)-N*4*,N*4*-dimethyl-N*1*-(3,3,3-trifluoro-1-methyl-2-oxo-propyl)-succinamide] (H-[Tle]-Asp(NMe2)-[ξA]-CF3)
